Test results: PubChem BioAssay AID330 (DTP/NCI, 2004)
Several values for one entry are separate records, joined by “and”; a condition that tells them apart may be missing. Identical values can stand only once. Inconclusive results and toxic doses are left out.

Tested on: P388 leukemia ip, CD2F1 mice, survival T/C
Assay: NCI In Vivo Anticancer Drug Screen. Data for tumor model P388 Leukemia (intraperitoneal) in CD2F1 (CDF1) mice
Settings: endpoint: median survival time, higher = longer survival
Procedure, shortened: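 Mice carrying the transplanted tumor received test compound or vehicle. Survival was recorded in each group, and the value is the treated-group measurement divided by that of the vehicle-treated control group.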

[1] = dose: 50.0 mg/kg/injection, schedule: Q01DX009 (ip), vehicle: saline
[2] = dose: 60.0 mg/kg/injection, schedule: Q01DX005 (ip), vehicle: saline with Tween-80
[3] = dose: 120.0 mg/kg/injection, schedule: Q01DX005 (ip), vehicle: saline with Tween-80
[4] = dose: 240.0 mg/kg/injection, schedule: Q01DX005 (ip), vehicle: saline with Tween-80
[5] = dose: 100.0 mg/kg/injection, schedule: Q01DX001 (ip), vehicle: saline with Tween-80
[6] = dose: 200.0 mg/kg/injection, schedule: Q01DX001 (ip), vehicle: saline with Tween-80
[7] = dose: 50.0 mg/kg/injection, schedule: Q01DX005 (ip), vehicle: saline with Tween-80
[8] = dose: 100.0 mg/kg/injection, schedule: Q01DX005 (ip), vehicle: saline with Tween-80
[9] = dose: 100.0 mg/kg/injection, schedule: Q04DX002 (ip), vehicle: saline with Tween-80
[10] = dose: 200.0 mg/kg/injection, schedule: Q04DX002 (ip), vehicle: saline with Tween-80
[11] = dose: 6.25 mg/kg/injection, schedule: Q01DX005 (ip), vehicle: saline with Tween-80
[12] = dose: 12.5 mg/kg/injection, schedule: Q01DX005 (ip), vehicle: saline with Tween-80
[13] = dose: 25.0 mg/kg/injection, schedule: Q01DX005 (ip), vehicle: saline with Tween-80

CC1CN1P(=O)(N1CCCCCC1)N1CC1C (stereo not drawn)
T/C (dose: 12.5 mg/kg/injection, schedule: Q04DX003 (ip), vehicle: saline): 104 % of control
T/C (dose: 22.0 mg/kg/injection, schedule: Q01DX009 (ip), vehicle: saline): 122 % of control
T/C (dose: 25.0 mg/kg/injection, schedule: Q04DX003 (ip), vehicle: saline): 100 % of control
T/C (dose: 33.0 mg/kg/injection, schedule: Q01DX009 (ip), vehicle: saline): 155 % of control
T/C [1]: 154 % of control and 166 % of control
T/C (dose: 75.0 mg/kg/injection, schedule: Q01DX009 (ip), vehicle: saline): 111 % of control
T/C (dose: 100.0 mg/kg/injection, schedule: Q04DX003 (ip), vehicle: saline): 158 % of control

COC(=O)CCSCCO
T/C [2]: 119 % of control
T/C [3]: 109 % of control
T/C [4]: 101 % of control

O=c1nc2n(CC(O)C(O)C(O)C(O)CO)c3ccc(Cl)cc3nc-2c(=O)[nH]1 (stereo not drawn)
T/C (dose: 50.0 mg/kg/injection, schedule: Q01DX005 (ip), vehicle: saline): 104 % of control
T/C (dose: 100.0 mg/kg/injection, schedule: Q01DX005 (ip), vehicle: saline): 104 % of control
T/C (dose: 200.0 mg/kg/injection, schedule: Q01DX005 (ip), vehicle: saline): 104 % of control

FC(F)(F)SN1COCN(SC(F)(F)F)C1
T/C (dose: 30.0 mg/kg/injection, schedule: Q01DX005 (ip), vehicle: saline): 96 % of control
T/C (dose: 60.0 mg/kg/injection, schedule: Q01DX005 (ip), vehicle: saline): 100 % of control
T/C (dose: 120.0 mg/kg/injection, schedule: Q01DX005 (ip), vehicle: saline): 99 % of control and 102 % of control

CC(CN(C)C)Nc1c2ccccc2nc2cccc([N+](=O)[O-])c12 (stereo not drawn)
T/C (dose: 0.04 mg/kg/injection, schedule: Q01DX009 (ip), vehicle: saline): 87 % of control
T/C (dose: 0.09 mg/kg/injection, schedule: Q01DX009 (ip), vehicle: saline): 101 % of control
T/C (dose: 0.19 mg/kg/injection, schedule: Q01DX009 (ip), vehicle: saline): 102 % of control and 113 % of control
T/C (dose: 0.39 mg/kg/injection, schedule: Q01DX009 (ip), vehicle: saline): 109 % of control

OCC1CC2(C1)CC(CO)C2 (stereo not drawn)
T/C [5]: 97 % of control
T/C [6]: 104 % of control
T/C (dose: 400.0 mg/kg/injection, schedule: Q01DX001 (ip), vehicle: saline with Tween-80): 99 % of control

O=C1c2cccc(NCCNCCO)c2C(=O)c2cccc(Cl)c21
T/C (dose: 5.0 mg/kg/injection, schedule: Q01DX009 (ip), vehicle: acid diluted with saline): 98 % of control
T/C (dose: 10.0 mg/kg/injection, schedule: Q01DX009 (ip), vehicle: acid diluted with saline): 113 % of control
T/C (dose: 20.0 mg/kg/injection, schedule: Q01DX009 (ip), vehicle: acid diluted with saline): 115 % of control
T/C (dose: 40.0 mg/kg/injection, schedule: Q01DX009 (ip), vehicle: acid diluted with saline): 113 % of control
T/C (dose: 80.0 mg/kg/injection, schedule: Q01DX009 (ip), vehicle: acid diluted with saline): 124 % of control
T/C (dose: 160.0 mg/kg/injection, schedule: Q01DX009 (ip), vehicle: acid diluted with saline): 120 % of control

CN(C)c1ccc(Cc2ccc(N(C)C)nc2)cn1
T/C [7]: 109 % of control
T/C [8]: 110 % of control

CCN(CC)C1=NS(=O)(=O)c2ccccc2C(NN)=C1C
T/C (dose: 6.25 mg/kg/injection, schedule: Q01DX009 (ip), vehicle: Klucel (hydroxypropylcellulose) (HPC)): 90 % of control
T/C (dose: 12.5 mg/kg/injection, schedule: Q01DX009 (ip), vehicle: Klucel (hydroxypropylcellulose) (HPC)): 90 % of control
T/C (dose: 25.0 mg/kg/injection, schedule: Q01DX009 (ip), vehicle: Klucel (hydroxypropylcellulose) (HPC)): 104 % of control
T/C [9]: 92 % of control
T/C [10]: 99 % of control
T/C (dose: 400.0 mg/kg/injection, schedule: Q04DX002 (ip), vehicle: saline with Tween-80): 97 % of control

CC(C)=CCN1CCC2(C)c3cc(O)ccc3CCC2C1 (stereo not drawn)
T/C (dose: 50.0 mg/kg/injection, schedule: Q01DX005 (ip), vehicle: Klucel (hydroxypropylcellulose) (HPC)): 94 % of control
T/C (dose: 100.0 mg/kg/injection, schedule: Q01DX005 (ip), vehicle: Klucel (hydroxypropylcellulose) (HPC)): 104 % of control
T/C (dose: 200.0 mg/kg/injection, schedule: Q01DX005 (ip), vehicle: Klucel (hydroxypropylcellulose) (HPC)): 94 % of control

CC(C)(Nc1ccccc1)c1cccs1
T/C (dose: 100.0 mg/kg/injection, schedule: Q01DX009 (ip), vehicle: saline with Tween-80): 109 % of control
T/C (dose: 200.0 mg/kg/injection, schedule: Q01DX009 (ip), vehicle: saline with Tween-80): 109 % of control
T/C (dose: 400.0 mg/kg/injection, schedule: Q01DX009 (ip), vehicle: saline with Tween-80): 95 % of control

Cc1cccc2c(NCCCCCCNc3cc(C)[n+](C)c4c(C)cccc34)cc(C)[n+](C)c12
T/C (dose: 3.12 mg/kg/injection, schedule: Q01DX005 (ip), vehicle: suspension in saline): 112 % of control
T/C (dose: 6.25 mg/kg/injection, schedule: Q01DX005 (ip), vehicle: suspension in saline): 106 % of control
T/C (dose: 12.5 mg/kg/injection, schedule: Q01DX005 (ip), vehicle: suspension in saline): 112 % of control

C(=N\Nc1ccccn1)/c1ccccn1.C(=N\Nc1ccccn1)/c1ccccn1.[Cl-].[Fe+3]
T/C [5]: 100 % of control
T/C [6]: 89 % of control

C=CCn1c2c(c3ccccc3c1=O)C(=O)c1ccccc1-2
T/C [11]: 97 % of control
T/C [12]: 99 % of control
T/C [13]: 99 % of control
T/C [8]: 87 % of control

O=C1OCCOCCOCCOCCOCCOC(=O)C1c1ccccc1
T/C (dose: 50.0 mg/kg/injection, schedule: Q01DX009 (ip), vehicle: Klucel (hydroxypropylcellulose) (HPC)): 102 % of control
T/C (dose: 100.0 mg/kg/injection, schedule: Q01DX009 (ip), vehicle: Klucel (hydroxypropylcellulose) (HPC)): 101 % of control
T/C (dose: 200.0 mg/kg/injection, schedule: Q01DX009 (ip), vehicle: Klucel (hydroxypropylcellulose) (HPC)): 100 % of control

NC(CC1C(=O)Nc2ccccc21)C(=O)O (stereo not drawn)
T/C [7]: 104 % of control
T/C [8]: 103 % of control
T/C (dose: 200.0 mg/kg/injection, schedule: Q01DX005 (ip), vehicle: saline with Tween-80): 103 % of control

CC1=C(C)C(=O)C(C(C)(C)CC(=O)n2cc(F)c(=O)[nH]c2=O)=C(C)C1=O
T/C [5]: 111 % of control

O=C(c1ccncc1)c1cc(Cl)c(Cl)cc1Cl
T/C (dose: 50.0 mg/kg/injection, schedule: Q04DX002 (ip), vehicle: saline with Tween-80): 102 % of control
T/C [9]: 93 % of control
T/C [10]: 111 % of control

Nc1ccccc1CN1C(=O)CCC1=O
T/C [1]: 105 % of control
T/C (dose: 100.0 mg/kg/injection, schedule: Q01DX009 (ip), vehicle: saline): 101 % of control
T/C (dose: 200.0 mg/kg/injection, schedule: Q01DX009 (ip), vehicle: saline): 99 % of control

CC1C(=O)OC2C1CCC1(C)C3(C)C(=O)C=CC213 (stereo not drawn)
T/C (dose: 15.0 mg/kg/injection, schedule: Q01DX005 (ip), vehicle: Klucel (hydroxypropylcellulose) (HPC)): 97 % of control
T/C (dose: 30.0 mg/kg/injection, schedule: Q01DX005 (ip), vehicle: Klucel (hydroxypropylcellulose) (HPC)): 101 % of control
T/C (dose: 60.0 mg/kg/injection, schedule: Q01DX005 (ip), vehicle: Klucel (hydroxypropylcellulose) (HPC)): 104 % of control and 93 % of control

CCCNC(=O)OCC1=C(COC(=O)NCCC)C2OC1C(C(=O)OC)=C2C(=O)OC
T/C (dose: 12.5 mg/kg/injection, schedule: Q01DX009 (ip), vehicle: distilled water + Tween-80): 89 % of control
T/C (dose: 25.0 mg/kg/injection, schedule: Q01DX009 (ip), vehicle: distilled water + Tween-80): 93 % of control
T/C (dose: 50.0 mg/kg/injection, schedule: Q01DX009 (ip), vehicle: distilled water + Tween-80): 86 % of control

O=C1C=CC(=Nc2cc3c(cc2Br)-c2ccccc2C3=O)O1
T/C (dose: 3.12 mg/kg/injection, schedule: Q01DX005 (ip), vehicle: saline with Tween-80): 100 % of control and 98 % of control
T/C [11]: 100 % of control and 104 % of control
T/C [12]: 104 % of control and 105 % of control
T/C [13]: 104 % of control and 106 % of control and 117 % of control
T/C [7]: 103 % of control and 105 % of control
T/C [8]: 104 % of control

O=C1c2ccc3ccccc3c2CN2C(=O)CCC12 (stereo not drawn)
T/C [2]: 105 % of control
T/C [3]: 103 % of control
T/C [4]: 104 % of control

O=C1CSC(=S)N1c1ccccc1C(F)(F)F
T/C (dose: 50.0 mg/kg/injection, schedule: Q01DX009 (ip), vehicle: suspension in saline): 91 % of control
T/C (dose: 100.0 mg/kg/injection, schedule: Q01DX009 (ip), vehicle: suspension in saline): 96 % of control
T/C (dose: 200.0 mg/kg/injection, schedule: Q01DX009 (ip), vehicle: suspension in saline): 93 % of control
